Laboratory results: US9505710B2 (priority 2015, dated 2016)
Where a name gives a salt, the structure may show the parent alone.

Biological target: BoNT/A LC1-429 (Clostridium botulinum, UniProt P0DPI1)
Experiment: biochemical
Settings: BoNT/A Ki (nM)

Chain of BoNT/A LC1-429 (P0DPI1 1-429, added parts left off): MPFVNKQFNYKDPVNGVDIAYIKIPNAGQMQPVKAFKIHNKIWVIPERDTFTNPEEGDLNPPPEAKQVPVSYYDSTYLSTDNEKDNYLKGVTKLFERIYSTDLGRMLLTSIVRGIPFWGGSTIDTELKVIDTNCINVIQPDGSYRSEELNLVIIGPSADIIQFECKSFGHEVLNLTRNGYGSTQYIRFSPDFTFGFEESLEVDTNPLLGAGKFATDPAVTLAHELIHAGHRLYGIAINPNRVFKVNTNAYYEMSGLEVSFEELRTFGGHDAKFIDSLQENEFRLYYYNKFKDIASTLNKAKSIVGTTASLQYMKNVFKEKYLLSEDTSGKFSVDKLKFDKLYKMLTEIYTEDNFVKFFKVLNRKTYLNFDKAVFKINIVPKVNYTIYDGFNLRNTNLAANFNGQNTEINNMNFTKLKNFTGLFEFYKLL

| Structure (SMILES) | Ki |
| --- | --- |
| CCO[C@H](CC(=O)NO)[C@H](Cc1ccc(Cl)cc1)c1ccc(F)cc1F [Example 6-21, (3R,4R)-5-(4-chlorophenyl)-4-(2,4-difluorophenyl)-3-ethoxy-N-hydroxypentanamide potassium salt] | 12 nM |
| CO[C@H](CC(=O)NO)[C@H](Cc1ccc(Cl)cc1)c1ccc(F)cc1 [Example 3-5, (3R,4R)-5-(4-chlorophenyl)-4-(4-fluorophenyl)-N-hydroxy-3-methoxypentanamide] | 5.2 nM |
| O=C(C[C@@H](OCC1CC1)[C@H](Cc1ccc(Cl)cc1)c1ccc(F)cc1F)NO [Example 6-17, (3R,4R)-5-(4-chlorophenyl)-3-(cyclopropylmethoxy)-4-(2,4-difluorophenyl)-N-hydroxypentanamide] | 52.4 nM |
| CCO[C@H](CC(=O)NO)[C@H](Cc1ccc(Cl)cc1)c1ccc(COCOC)cc1 [Example 3-14] | 21.2 nM |
| CCO[C@H](CC(=O)NO)[C@H](Cc1ccc(Cl)cc1)c1ccc(-c2c(C)nn(C)c2C)cc1 [Example 3-28, (3R,4R)-5-(4-chlorophenyl)-3-ethoxy-N-hydroxy-4-(4-(1,3,5-trimethyl-1H-pyrazol-4-yl)phenyl)pentanamide] | 3.7 nM |
| CCO[C@H](CC(=O)NO)[C@H](Cc1ccc(Cl)cc1)c1ccc(F)cc1F [Example 6-11, (3R,4R)-5-(4-chlorophenyl)-4-(2,4-difluorophenyl)-3-ethoxy-N-hydroxypentanamide] | 10.3 nM |
| CCO[C@H](CC(=O)NO)[C@H](Cc1ccc(Cl)cc1C)c1ccc(F)cc1F [Example 6-10, (3R,4R)-5-(4-chloro-2-methylphenyl)-4-(2,4-difluorophenyl)-3-ethoxy-N-hydroxypentanamide] | 10 nM |
| CCCO[C@H](CC(=O)NO)[C@H](Cc1ccc(Cl)cc1)c1ccc(F)cc1F [Example 6-16, (3R,4R)-5-(4-chlorophenyl)-4-(2,4-difluorophenyl)-N-hydroxy-3-propoxypentanamide] | 38.5 nM |
| CCO[C@H](CC(=O)NO)[C@H](Cc1ccc(Cl)cc1)c1ccc(C(=O)N(CCO)CCO)cc1 [Example 4-10, 4-((2R,3R)-1-(4-chlorophenyl)-3-ethoxy-5-(hydroxyamino)-5-oxopentan-2-yl)-N,N-bis(2-hydroxyethyl)benzamide] | 16.7 nM |
| CO[C@H](CC(=O)NO)[C@H](Cc1ccc(Cl)cc1)c1ccc(Cl)c(Br)c1 [Example 5-1, (3R,4R)-4-(3-bromo-4-chlorophenyl)-5-(4-chlorophenyl)-N-hydroxy-3-methoxypentanamide] | 5.2 nM |
| CCO[C@H](CC(=O)NO)[C@H](Cc1ccc(Cl)cc1)c1ccc(CN2CCCCC2)cc1 [Example 3-19, (3R,4R)-5-(4-chlorophenyl)-3-ethoxy-N-hydroxy-4-(4-(piperidin-1-ylmethyl)phenyl)pentanamide] | 19.5 nM |
| CCO[C@H](CC(=O)NO)[C@H](Cc1ccc(Cl)cc1Cl)c1ccc(Br)cc1 [Example 6-6, (3R,4R)-4-(4-bromophenyl)-5-(2,4-dichlorophenyl)-3-ethoxy-N-hydroxypentanamide] | 4.9 nM |
| CO[C@H](CC(=O)NO)[C@H](Cc1ccc(F)c(C)c1)c1ccc(Br)cc1 [Example 2-2, (3R,4R)-4-(4-bromophenyl)-5-(4-fluoro-3-methylphenyl)-N-hydroxy-3-methoxypentanamide] | 3.4 nM |
| CO[C@H](CC(=O)NO)[C@H](Cc1ccc(Cl)cc1)c1cc(F)c(F)c(F)c1 [Example 5-5, (3R,4R)-5-(4-chlorophenyl)-N-hydroxy-3-methoxy-4-(3,4,5-trifluorophenyl)pentanamide] | 5.36 nM |
| CCO[C@H](CC(=O)NO)[C@H](Cc1ccc(Cl)cc1)c1ccc(CN2CCOCC2)cc1 [Example 3-16, (3R,4R)-5-(4-chlorophenyl)-3-ethoxy-N-hydroxy-4-(4-(morpholinomethyl)phenyl) pentanamide] | 10.1 ± 2.4 nM |
| CO[C@@H](CC(=O)NO)[C@H](Cc1ccc(F)c(C)c1)c1ccc(Br)cc1 [Example 2-4, (3S,4R)-4-(4-bromophenyl)-5-(4-fluoro-3-methylphenyl)-N-hydroxy-3-methoxypentanamide] | 145 nM |
| CCO[C@H](CC(=O)NO)[C@H](Cc1ccc(Cl)cc1)c1ccc(C(=O)N2CCOCC2)cc1 [Example 4-5, (3R,4R)-5-(4-chlorophenyl)-3-ethoxy-N-hydroxy-4-(4-(morpholine-4-carbonyl)phenyl)pentanamide] | 5.8 ± 1.1 nM |
| O=C(C[C@@H](OCCO)[C@H](Cc1ccc(Cl)cc1)c1ccc(F)cc1F)NO [Example 6-18, (3R,4R)-5-(4-chlorophenyl)-4-(2,4-difluorophenyl)-N-hydroxy-3-(2-hydroxyethoxy)pentanamide] | 8.75 nM |
| CCCN(CCC)C(=O)c1ccc([C@@H](Cc2ccc(Cl)cc2)[C@@H](CC(=O)NO)OCC)cc1 [Example 4-2, 4-((2R,3R)-1-(4-chlorophenyl)-3-ethoxy-5-(hydroxyamino)-5-oxopentan-2-yl)-N,N-dipropylbenzamide] | 3.9 nM |
| CCO[C@H](CC(=O)NO)[C@H](Cc1ccc(Cl)cc1)c1ccc(-c2cnc(N(C)C)nc2)cc1 [Example 3-27, (3R,4R)-5-(4-chlorophenyl)-4-(4-(2-(dimethylamino)pyrimidin-5-yl)phenyl)-3-ethoxy-N-hydroxypentanamide] | 5.3 nM |
| O=C(O)CCO[C@H](CC(=O)NO)[C@H](Cc1ccc(Cl)cc1)c1ccc(F)cc1F [Example 6-27, 3-(((3R,4R)-5-(4-chlorophenyl)-4-(2,4-difluorophenyl)-1-(hydroxyamino)-1-oxopentan-3-yl)oxy)propanoic acid] | 361 nM |
| CCO[C@H](CC(=O)NO)[C@H](Cc1ccc(Cl)cc1)c1ccc(C(=O)N2CCCCC2)cc1 [Example 4-3, (3R,4R)-5-(4-chlorophenyl)-3-ethoxy-N-hydroxy-4-(4-(piperidine-1-carbonyl)phenyl)pentanamide] | 4.3 ± 2 nM |
| CO[C@H](CC(=O)NO)[C@H](Cc1ccc(Cl)cc1)c1ccc(Br)cc1 [Example 3-8, (3R,4R)-4-(4-bromophenyl)-5-(4-chlorophenyl)-N-hydroxy-3-methoxypentanamide] | 1.75 nM |
| CCO[C@H](CC(=O)NO)[C@H](Cc1ccc(Cl)cc1)c1ccc(C2(C)CO2)cc1 (stereo partly drawn) [Example 3-12, (3R,4R)-5-(4-chlorophenyl)-3-ethoxy-N-hydroxy-4-(4-(2-methyloxiran-2-yl)phenyl)pentanamide] | 9.6 nM |
| CC(C)(C)OC(=O)NCCCO[C@H](CC(=O)NO)[C@H](Cc1ccc(Cl)cc1)c1ccc(F)cc1F [Example 6-25, tert-butyl (3-(((3R,4R)-5-(4-chlorophenyl)-4-(2,4-difluorophenyl)-1-(hydroxyamino)-1-oxopentan-3-yl)oxy)propyl)carbamate] | > 150000 nM |
| CCO[C@H](CC(=O)NO)[C@H](Cc1ccc(Cl)cc1)c1ccc(C(=O)N(C)CCO)cc1 [Example 4-4, 4-((2R,3R)-1-(4-chlorophenyl)-3-ethoxy-5-(hydroxyamino)-5-oxopentan-2-yl)-N-(2-hydroxyethyl)-N-methylbenzamide] | 9.8 ± 3.7 nM |
| CCO[C@H](CC(=O)NO)[C@H](Cc1ccc(Cl)cc1)c1ccc(-c2cncnc2)cc1 [Example 3-26, (3R,4R)-5-(4-chlorophenyl)-3-ethoxy-N-hydroxy-4-(4-(pyrimidin-5-yl)phenyl)pentanamide] | 3.7 nM |
| CCO[C@H](CC(=O)NO)[C@H](Cc1ccc(Cl)cc1)c1ccc(Cl)c(N2CCOCC2)c1 [Example 6-9, (3R,4R)-4-(4-chloro-3-morpholinophenyl)-5-(4-chlorophenyl)-3-ethoxy-N-hydroxypentanamide] | 5.8 nM |
